Experiments:
Format in all cases: functional, cell-based
SK-MEL-28 = assay: Cytotoxicity against human SK-MEL-28 cells
P388 = assay: Cytotoxicity against mouse P388 cells
HT-29 = assay: Cytotoxicity against human HT-29 cells
A549 = assay: Cytotoxicity against human A549 cells

Measured: IC50

CC(=O)O[C@@H]1C/C=C(/C)C[C@H]2O[C@H]3[C@@H]4[C@H]2C(C)=CC(=O)[C@@H]4[C@@H](C)CO[C@@]13C [PACHYCLAVULARIAENONE B]
> 1 µg/mL: all assays above

CC(C)[C@@H](C)CC[C@@H](C)[C@H]1CC[C@@H]([C@@H]2C[C@H]3O[C@]34C[C@@H](O)CC[C@]4(C)C2=O)[C@]1(C)CCO [SECOSTEROL]
> 1 µg/mL: all assays above

Reference: ChEMBL document CHEMBL1150645, “A new secosterol from the Indonesian octocoral Pachyclavularia violacea” (J Nat Prod, 2002)
